{
  "source": "patent EP0773292A1",
  "about": "“Immortalised embryonic hippocampal cells and their use” (BAYER AG, priority 1995, dated 1997)",
  "assay_type_in_all_cases": "cell-based, murine",
  "key": {"[1]": {"tested_on": "HC e/n XVB cells", "assay": "Electrophysiology: whole-cell patch-clamp, ligand-activated currents", "details": "for ligand-activated currents: membrane potential clamped to -70mV", "description": "(§1) Electrophysiological setup: Membrane currents were measured with the patch-clamp technique in the whole-cell recording configuration (Hamill et al. 1981, Pfluegers Arch. 391:85-100). Current signals were amplified with conventional electronics (EPC-9 amplifier, HEKA Elektronik GmbH, Lambrecht, Germany), filtered at 10kHz, and sampled at 5 kHz by an interface connected to an IBM AT-compatible computer system, which also served as a stimulus generator.\n(§2) Solutions and electrodes: The standard bathing solution contained (in mM): Nacl 150, KCL 5, MgCl2 1.8, HEPES 5, and glucose 10. In some experiments an equimolar amount of NaCl was replaced by 5mM BaCl2. Recording pipettes had resistances about 5MΩ (Hilgenberg, Malsfeld, Germany). The pipettes contained (in mM): KCL 140, CaCl2 0.5, EGTA 5, MgCl2 2, and HEPES 10. The pH was adjusted to 7.4. In some experiments the pipette solution was designed to minimize the contribution of voltage-activated currents. In this case, investigating the ligand-activated currents, the pipette solution contained (in mM): CsCl 140, EGTA 10, and HEPES 10.\n(§3) Ligands were dissolved in the extracellular saline solution and applied via an U-tube application system. To record ligand-induced currents, the membrane potential was clamped to -70mV. For measurements of voltage-activated currents, cells were held at -70mV and every second the membrane was stepped through a 50 msec. de- or hyperpolarising test pulse to a potential between -170 and +20 mV."}, "[2]": {"tested_on": "HNMMCV13.1.E", "assay": "Electrophysiology: whole-cell patch-clamp, ligand-activated currents", "details": "13.1.E; membrane potential clamped to -70mV", "description": "as §1, §2, §3"}, "[3]": {"tested_on": "HC e/n XV.B cells", "assay": "Ca2+-imaging (Fura-2), rise in intracellular calcium", "description": "(§4) Fluorescent Probe: Dynamic changes of intracellular calcium concentration were measured using the Fura-2 fluorescent probe (Roe et al. 1990, Cell Calcium 11:63-73). This fluorescent dye was chosen because of its selectivity, high quantum yield and extinction co-efficient. Fura-2 permeates the living cell as a acetoxymethylester and becomes trapped within the cell after hydrolysis by intracellular esterases. The calcium-sensitive free acid of Fura-2 is able to bind to calcium ions inside the cell. Fura-2 has an excitation maximum at 380 nm and the Fura2/calcium complex peaks at 340 nm. A change in intracellular calcium concentration was calculated by recording fluorescent video images at wavelengths of 340nm and 380nm excitation and 510nm emission and by dividing the grey values of the digitized video images of 380nm from 340nm.\n(§5) Loading cells with Fura-2: A stock solution with 2mM Fura-2-acetoxymethylester in dimethylsulfoxide (DMSO) was diluted to 5-10 µM with serum free Minimal Essential Medium (MEM, Gibco) containing 1.5% bovine serum albumin and 5 mM calcium chloride. The cells were incubated in a Falcon 96 well plate for 45-60 minutes at 37°C. Subsequently the cells were washed twice in N-(2-Hydroxyethyl)piperazine-N'-(2-ethanesulfonic acid) (HEPES, 5mM) buffered Tyrode solution (HEPES buffered salt solution containing 130 mM NaCl, 5 mM KCl, 2 mM CaCl2, 1 mM MgCl2, 5mM NaHCO3, 11 mM Glucose).\n(§6) Imaging procedure: 100 µl of Tyrode buffer was added to the plate wells and the cells were sequencially exposed to light at 340 nm and 380 nm under a fluorescent microscope (Nikon Diaphot). The exposition time was 100 ms. A series of video images at 3 second intervals was acquired and stored as digitised pictures in the image boards of an image analysis computer (Leica, Quantimet 570). After the acquisition of 8 images the test substances were applied. The grey levels of the cells, which correspond to the fluorescence intensity, were measured in the recorded video images. The ratio was determined by dividing the measured grey levels of the \"380 nm images\" by the grey levels of the \"340 nm images\" either from averaged images or from individual cells. For averaged results, the grey levels were measured over the whole images.\n(§7) The cells were loaded with Fura 2/AM between day 3 and 7 in culture. A number of agonists were tested for their ability to activate specific receptors on the cell surface which leads to a rise in intracellular calcium. The rise in calcium concentration in the cytoplasm can occur after activation of specific calcium channels in the cell membrane, after activation of neurotransmitter receptors directly coupled to ion channels that are permeable to calcium ions (i.e. NMDA or AMPA type glutamate receptors), or by activation of receptors, which propagate the signal through the activation of specific G-proteins, which regulate the activity of different enzymes in the interior of the cell (Connor, Cell Calcium 14 (1993), 185-200; Crouch and Hendry, Medical Res. Rev. 13 (1993), 105-123). The activation of phospholipase C generates the second messengers diacylglycerol and inositoltriphosphate from phospholipids in the cell membrane. The binding of inositoltriphosphate to receptors localised on internal vesicles which store calcium ions leads to a transient rise in the concentration of calcium ions in the cytoplasm (Berridge, M.J. 1993, Nature 361: 315-325)."}, "[4]": {"tested_on": "HNMMCV13.1.F", "assay": "Ca2+-imaging (Fura-2), rise in intracellular calcium", "description": "as §4, §5, §6, §7"}, "[5]": {"tested_on": "HNMMCV11.2.0", "assay": "Ca2+-imaging (Fura-2), rise in intracellular calcium", "description": "as §4, §5, §6, §7"}, "[6]": {"tested_on": "HNMMCV13.1.E", "assay": "Ca2+-imaging (Fura-2), rise in intracellular calcium", "description": "as §4, §5, §6, §7"}, "[7]": {"tested_on": "HNMMCV14.1.A", "assay": "Ca2+-imaging (Fura-2), rise in intracellular calcium", "description": "as §4, §5, §6, §7"}, "[8]": {"tested_on": "HNMMCV14.1.A", "assay": "Electrophysiology: whole-cell patch-clamp, ligand-activated currents", "description": "as §1, §2, §3"}, "[9]": {"tested_on": "v-myc-expressing lines and clones", "assay": "Induction of differentiation", "details": "1mM dbcAMP", "description": "For experiments in the presence of growth factors or other differentiation inducing agents, the primary cell cultures or the immortalised cell lines were cultured in the presence of one or a combination of the following: β-FGF, 1ng/ml, (Collaborative Research), EGF; 5 ng/ml or 10 ng/ml, (Collaborative Research), NGF (10 ng/ml, Collaborative Reasearch), dibutyryl cyclic adenosine monophosphate (dbcAMP, 1mM, Sigma, Heidelberg), retinoic acid (5 µM; Sigma), IL-7 (50 U/ml), TGFα (5ng/ml).\nTo induce differentiation in vitro several combinations of the following factors were used: retinoic acid (RA, 10 µM), NGF, β-FGF, EGF, IL-7, TGFα, dbcAMP (1mM). In addition the effect of co-culture with cortical glial cells originating from postnatal day 0 to 1 and granule neurons originating from postnatal day 6 mice was investigated."}},
  "data": [
    {"smiles": "N[C@@H](CCC(=O)O)C(=O)O", "note": "[Glutamate, L-glutamate]", "values": [
      {"measurement": "ligand-activated currents", "setting": "[1]; XV. B (with EGF, undifferentiated)", "result": "-"},
      {"measurement": "ligand-activated currents", "setting": "[1]; XV. B/ - EGF (differentiated)", "result": "++ (++: 30-70% positive cells)"},
      {"measurement": "ligand-activated currents", "setting": "[2]", "result": "+ (+: 10-30% positive cells)"}
    ]},
    {"smiles": "C=C(C)[C@H]1CN[C@H](C(=O)O)[C@H]1CC(=O)O", "note": "[Kainate, kainic acid]", "values": [
      {"measurement": "transient rise in intracellular calcium concentration", "setting": "[3]", "result": "reproducible calcium signal"},
      {"measurement": "transient calcium currents after the application of agonists and antagonists", "setting": "[4]", "result": "-"},
      {"measurement": "transient rise in intracellular calcium concentration", "setting": "[4]", "result": "did not result in a transient rise in intracellular calcium concentrations"},
      {"measurement": "transient calcium currents after the application of agonists and antagonists", "setting": "[5]", "result": "-"},
      {"measurement": "transient rise in intracellular calcium concentration", "setting": "[5]", "result": "did not result in a transient rise in intracellular calcium concentrations"},
      {"measurement": "transient calcium currents after the application of agonists and antagonists", "setting": "[6]", "result": "-"},
      {"measurement": "transient rise in intracellular calcium concentration", "setting": "[6]", "result": "did not result in a transient rise in intracellular calcium concentrations"},
      {"measurement": "transient calcium currents after the application of agonists and antagonists", "setting": "[7]", "result": "-"},
      {"measurement": "transient rise in intracellular calcium concentration", "setting": "[7]", "result": "did not result in a transient rise in intracellular calcium concentrations"},
      {"measurement": "I/V curve of the ligand response", "setting": "[1]", "result": "linear"},
      {"measurement": "ligand induced inward currents", "setting": "[1]", "result": "evoked responses with different peak amplitudes"},
      {"measurement": "reversal potential of the ligand-activated current", "setting": "[1]", "result": 0, "unit": "mV"},
      {"measurement": "ligand-activated currents", "setting": "[8]", "result": "+ / -"}
    ]},
    {"smiles": "CCCC(=O)Nc1ncnc2c1ncn2[C@@H]1O[C@@H]2COP(=O)(O)O[C@H]2[C@H]1OC(=O)CCC", "note": "[dbcAMP, dibutyryl cyclic adenosine monophosphate]", "values": [
      {"measurement": "expression of MAP-2", "setting": "[9]; cell line HNMMCV11.2.", "result": "induction of the expression of MAP-2"},
      {"measurement": "differentiation of the cells", "setting": "[9]; v-myc-expressing lines and clones", "result": "induced a partial differentiation"}
    ]}
  ]
}
